Measured values taken from patent publication US9529005B2, “Modulating bacterial MAM polypeptides in pathogenic disease” (priority 2011, dated 2016).
≈ marks a conversion by molar mass, not a printed value. Like-named read-outs stand apart in the source and are kept apart here.

Assays:
Assay in all cases: Antimicrobial susceptibility testing (MIC), BD Phoenix Automated Microbiology System; for interpretation of the result: key: R, resistant; I, intermediate; S, susceptible; R*: *As a rule, when ESBL is detected, an interpretation of susceptible or intermediate for penicillins, cephalosporins and aztreonam is reported as resistant
Assay type in all cases: cell-based
Acinetobacter baumannii = conditions: for MIC: Acinetobacter baumannii
Escherichia coli = conditions: for MIC: Escherichia coli
Klebsiella ssp. = conditions: for MIC: Klebsiella
Pseudomonas aeruginosa = conditions: for MIC: Pseudomonas aeruginosa
[1] = Acinetobacter baumannii isolate 1
[2] = Acinetobacter baumannii isolate 2
[3] = Acinetobacter baumannii isolate 3
[4] = Acinetobacter baumannii isolate 4
[5] = Acinetobacter baumannii isolate 5
[6] = read-out: minimal inhibiting concentration, Acinetobacter baumannii isolate 1
[7] = read-out: minimal inhibiting concentration, Acinetobacter baumannii isolate 2
[8] = read-out: minimal inhibiting concentration, Acinetobacter baumannii isolate 3
[9] = read-out: minimal inhibiting concentration, Acinetobacter baumannii isolate 4
[10] = read-out: minimal inhibiting concentration, Acinetobacter baumannii isolate 5
[11] = read-out: minimal inhibiting concentration, Escherichia coli isolate 1
[12] = read-out: minimal inhibiting concentration, Escherichia coli isolate 2
[13] = read-out: minimal inhibiting concentration, Escherichia coli isolate 3
[14] = read-out: minimal inhibiting concentration, Escherichia coli isolate 4
[15] = read-out: minimal inhibiting concentration, Escherichia coli isolate 5
[16] = read-out: minimal inhibiting concentration, Klebsiella ssp. isolate 1
[17] = read-out: minimal inhibiting concentration, Klebsiella ssp. isolate 2
[18] = read-out: minimal inhibiting concentration, Klebsiella ssp. isolate 3
[19] = read-out: minimal inhibiting concentration, Klebsiella ssp. isolate 4
[20] = read-out: minimal inhibiting concentration, Klebsiella ssp. isolate 5
[21] = Pseudomonas aeruginosa isolate 1
[22] = Pseudomonas aeruginosa isolate 2
[23] = Pseudomonas aeruginosa isolate 3
[24] = Pseudomonas aeruginosa isolate 4
[25] = Pseudomonas aeruginosa isolate 5
[26] = read-out: minimal inhibiting concentration, Pseudomonas aeruginosa isolate 1
[27] = read-out: minimal inhibiting concentration, Pseudomonas aeruginosa isolate 2
[28] = read-out: minimal inhibiting concentration, Pseudomonas aeruginosa isolate 3
[29] = read-out: minimal inhibiting concentration, Pseudomonas aeruginosa isolate 4
[30] = read-out: minimal inhibiting concentration, Pseudomonas aeruginosa isolate 5

Compound	interpretation of the result (Acinetobacter baumannii; [1])	interpretation of the result (Acinetobacter baumannii; [2])	interpretation of the result (Acinetobacter baumannii; [3])	interpretation of the result (Acinetobacter baumannii; [4])	interpretation of the result (Acinetobacter baumannii; [5])	interpretation of the result (Escherichia coli; Escherichia coli isolate 1)	interpretation of the result (Escherichia coli; Escherichia coli isolate 2)	interpretation of the result (Escherichia coli; Escherichia coli isolate 3)	interpretation of the result (Escherichia coli; Escherichia coli isolate 4)	interpretation of the result (Escherichia coli; Escherichia coli isolate 5)	interpretation of the result (Klebsiella ssp.; Klebsiella ssp. isolate 1)	interpretation of the result (Klebsiella ssp.; Klebsiella ssp. isolate 2)	interpretation of the result (Klebsiella ssp.; Klebsiella ssp. isolate 3)	interpretation of the result (Klebsiella ssp.; Klebsiella ssp. isolate 4)	interpretation of the result (Klebsiella ssp.; Klebsiella ssp. isolate 5)	interpretation of the result (Pseudomonas aeruginosa; [21])	interpretation of the result (Pseudomonas aeruginosa; [22])	interpretation of the result (Pseudomonas aeruginosa; [23])	interpretation of the result (Pseudomonas aeruginosa; [24])	interpretation of the result (Pseudomonas aeruginosa; [25])	other results
O=C1CN(/N=C/c2ccc([N+](=O)[O-])o2)C(=O)N1 [Nf., Nitrofurantoin]	R	R	R	R	R	S	S	S	S	S	R	R	R	R	R	R	R	R	R	R	MIC (Acinetobacter baumannii; [6]): > 64 mg/L; MIC (Acinetobacter baumannii; [7]): > 64 mg/L; MIC (Acinetobacter baumannii; [8]): > 64 mg/L; MIC (Acinetobacter baumannii; [9]): > 64 mg/L; MIC (Acinetobacter baumannii; [10]): > 64 mg/L; MIC (Escherichia coli; [11]): 32 mg/L (≈ 134 µM); MIC (Escherichia coli; [12]): ≤ 16 mg/L; MIC (Escherichia coli; [13]): ≤ 16 mg/L; MIC (Escherichia coli; [14]): ≤ 16 mg/L; MIC (Escherichia coli; [15]): ≤ 16 mg/L; MIC (Klebsiella ssp.; [16]): > 64 mg/L; MIC (Klebsiella ssp.; [17]): > 64 mg/L; MIC (Klebsiella ssp.; [18]): > 64 mg/L; MIC (Klebsiella ssp.; [19]): > 64 mg/L; MIC (Klebsiella ssp.; [20]): > 64 mg/L; MIC (Pseudomonas aeruginosa; [26]): > 64 mg/L; MIC (Pseudomonas aeruginosa; [27]): > 64 mg/L; MIC (Pseudomonas aeruginosa; [28]): > 64 mg/L; MIC (Pseudomonas aeruginosa; [29]): > 64 mg/L; MIC (Pseudomonas aeruginosa; [30]): > 64 mg/L
CN(C)[C@@H]1C(O)=C(C(N)=O)C(=O)[C@@]2(O)C(O)=C3C(=O)c4c(O)cccc4[C@@](C)(O)[C@H]3C[C@@H]12 [Tet., Tetracycline]	R	S	R	R	I	R	S	R	R	R	R	R	R	R	R	R	R	R	R	R	MIC (Acinetobacter baumannii; Acinetobacter baumannii isolate 1, read-out: minimal inhibiting concentration): > 8 mg/L; MIC (Acinetobacter baumannii; Acinetobacter baumannii isolate 2, read-out: minimal inhibiting concentration): 4 mg/L (≈ 9 µM); MIC (Acinetobacter baumannii; Acinetobacter baumannii isolate 3, read-out: minimal inhibiting concentration): > 8 mg/L; MIC (Acinetobacter baumannii; Acinetobacter baumannii isolate 4, read-out: minimal inhibiting concentration): > 8 mg/L; MIC (Acinetobacter baumannii; Acinetobacter baumannii isolate 5, read-out: minimal inhibiting concentration): 8 mg/L (≈ 18 µM); MIC (Escherichia coli; Escherichia coli isolate 1, read-out: minimal inhibiting concentration): > 8 mg/L; MIC (Escherichia coli; Escherichia coli isolate 2, read-out: minimal inhibiting concentration): ≤ 2 mg/L; MIC (Escherichia coli; Escherichia coli isolate 3, read-out: minimal inhibiting concentration): > 8 mg/L; MIC (Escherichia coli; Escherichia coli isolate 4, read-out: minimal inhibiting concentration): > 8 mg/L; MIC (Escherichia coli; Escherichia coli isolate 5, read-out: minimal inhibiting concentration): > 8 mg/L; MIC (Klebsiella ssp.; Klebsiella ssp. isolate 1, read-out: minimal inhibiting concentration): > 8 mg/L; MIC (Klebsiella ssp.; Klebsiella ssp. isolate 2, read-out: minimal inhibiting concentration): > 8 mg/L; MIC (Klebsiella ssp.; Klebsiella ssp. isolate 3, read-out: minimal inhibiting concentration): > 8 mg/L; MIC (Klebsiella ssp.; Klebsiella ssp. isolate 4, read-out: minimal inhibiting concentration): > 8 mg/L; MIC (Klebsiella ssp.; Klebsiella ssp. isolate 5, read-out: minimal inhibiting concentration): > 8 mg/L; MIC (Pseudomonas aeruginosa; Pseudomonas aeruginosa isolate 1, read-out: minimal inhibiting concentration): > 8 mg/L; MIC (Pseudomonas aeruginosa; Pseudomonas aeruginosa isolate 2, read-out: minimal inhibiting concentration): > 8 mg/L; MIC (Pseudomonas aeruginosa; Pseudomonas aeruginosa isolate 3, read-out: minimal inhibiting concentration): > 8 mg/L; MIC (Pseudomonas aeruginosa; Pseudomonas aeruginosa isolate 4, read-out: minimal inhibiting concentration): > 8 mg/L; MIC (Pseudomonas aeruginosa; Pseudomonas aeruginosa isolate 5, read-out: minimal inhibiting concentration): > 8 mg/L
NC[C@H]1O[C@H](O[C@H]2[C@H](O)[C@@H](O[C@H]3O[C@H](CO)[C@@H](O)[C@H](N)[C@H]3O)[C@H](N)C[C@@H]2N)[C@H](N)C[C@@H]1O [Tob., Tobramycin]	I	R	R	R	S	R	R	R	S	R	I	R	I	I	R	S	R	S	R	R	MIC (Acinetobacter baumannii; [6]): 8 mg/L (≈ 17.1 µM); MIC (Acinetobacter baumannii; [7]): > 8 mg/L; MIC (Acinetobacter baumannii; [8]): > 8 mg/L; MIC (Acinetobacter baumannii; [9]): > 8 mg/L; MIC (Acinetobacter baumannii; [10]): 4 mg/L (≈ 8.56 µM); MIC (Escherichia coli; [11]): > 8 mg/L; MIC (Escherichia coli; [12]): > 8 mg/L; MIC (Escherichia coli; [13]): > 8 mg/L; MIC (Escherichia coli; [14]): ≤ 2 mg/L; MIC (Escherichia coli; [15]): > 8 mg/L; MIC (Klebsiella ssp.; [16]): 8 mg/L (≈ 17.1 µM); MIC (Klebsiella ssp.; [17]): > 8 mg/L; MIC (Klebsiella ssp.; [18]): 8 mg/L (≈ 17.1 µM); MIC (Klebsiella ssp.; [19]): 8 mg/L (≈ 17.1 µM); MIC (Klebsiella ssp.; [20]): > 8 mg/L; MIC (Pseudomonas aeruginosa; [26]): ≤ 2 mg/L; MIC (Pseudomonas aeruginosa; [27]): > 8 mg/L; MIC (Pseudomonas aeruginosa; [28]): ≤ 2 mg/L; MIC (Pseudomonas aeruginosa; [29]): > 8 mg/L; MIC (Pseudomonas aeruginosa; [30]): > 8 mg/L
Gentamicin [Gent.]	R	R	R	R	R	R	R	R	S	S	R	R	I	R	R	S	S	I	R	R	minimal inhibiting concentration (Acinetobacter baumannii; [1]): > 8 µg/mL; minimal inhibiting concentration (Acinetobacter baumannii; [2]): > 8 µg/mL; minimal inhibiting concentration (Acinetobacter baumannii; [3]): > 8 µg/mL; minimal inhibiting concentration (Acinetobacter baumannii; [4]): > 8 µg/mL; minimal inhibiting concentration (Acinetobacter baumannii; [5]): > 8 µg/mL; minimal inhibiting concentration (Escherichia coli; Escherichia coli isolate 1): > 8 µg/mL; minimal inhibiting concentration (Escherichia coli; Escherichia coli isolate 2): > 8 µg/mL; minimal inhibiting concentration (Escherichia coli; Escherichia coli isolate 3): > 8 µg/mL; minimal inhibiting concentration (Escherichia coli; Escherichia coli isolate 4): ≤ 2 µg/mL; minimal inhibiting concentration (Escherichia coli; Escherichia coli isolate 5): ≤ 2 µg/mL; minimal inhibiting concentration (Klebsiella ssp.; Klebsiella ssp. isolate 1): > 8 µg/mL; minimal inhibiting concentration (Klebsiella ssp.; Klebsiella ssp. isolate 2): > 8 µg/mL; minimal inhibiting concentration (Klebsiella ssp.; Klebsiella ssp. isolate 3): 8 µg/mL; minimal inhibiting concentration (Klebsiella ssp.; Klebsiella ssp. isolate 4): > 8 µg/mL; minimal inhibiting concentration (Klebsiella ssp.; Klebsiella ssp. isolate 5): > 8 µg/mL; minimal inhibiting concentration (Pseudomonas aeruginosa; [21]): 4 µg/mL; minimal inhibiting concentration (Pseudomonas aeruginosa; [22]): 4 µg/mL; minimal inhibiting concentration (Pseudomonas aeruginosa; [23]): 8 µg/mL; minimal inhibiting concentration (Pseudomonas aeruginosa; [24]): > 8 µg/mL; minimal inhibiting concentration (Pseudomonas aeruginosa; [25]): > 8 µg/mL
Trimethoprim-Sulfamethoxazole [TmSm.]	R	R	R	R	R	R	R	R	R	R	R	S	S	S	R	R	R	R	R	R	minimal inhibiting concentration (Acinetobacter baumannii; [1]): 2/38; minimal inhibiting concentration (Acinetobacter baumannii; [2]): 2/38; minimal inhibiting concentration (Acinetobacter baumannii; [3]): 2/38; minimal inhibiting concentration (Acinetobacter baumannii; [4]): 2/38; minimal inhibiting concentration (Acinetobacter baumannii; [5]): 2/38; minimal inhibiting concentration (Escherichia coli; Escherichia coli isolate 1): 2/38; minimal inhibiting concentration (Escherichia coli; Escherichia coli isolate 2): 2/38; minimal inhibiting concentration (Escherichia coli; Escherichia coli isolate 3): 2/38; minimal inhibiting concentration (Escherichia coli; Escherichia coli isolate 4): 2/38; minimal inhibiting concentration (Escherichia coli; Escherichia coli isolate 5): 2/38; minimal inhibiting concentration (Klebsiella ssp.; Klebsiella ssp. isolate 1): 2/38; minimal inhibiting concentration (Klebsiella ssp.; Klebsiella ssp. isolate 5): 2/38; minimal inhibiting concentration (Pseudomonas aeruginosa; [21]): 2/38; minimal inhibiting concentration (Pseudomonas aeruginosa; [22]): 2/38; minimal inhibiting concentration (Pseudomonas aeruginosa; [23]): 2/38; minimal inhibiting concentration (Pseudomonas aeruginosa; [24]): 2/38; minimal inhibiting concentration (Pseudomonas aeruginosa; [25]): 2/38
